Experimental data reported in US11912693B2, “Compounds for modulating S1P1 activity and methods of using the same” (TREVENA, INC., priority 2017, dated 2024).

Legend:
[1] = system: paclitaxel induced peripheral neuropathy; assay: Reversal of allodynia induced by paclitaxel in mice (s.c. or p.o., von Frey frequency method); type: in vivo, c57bl/6 mice; details: Mus musculus; for inhibition in vivo at 3 mg/kg: po, 1 h, 3 mg/kg p.o., tested 60 min after dosing, read-out: Screen @ 3 mg/kg po (% MPE); for inhibition in vivo at 1 mg/kg: sc, 0.5 h, 1 mg/kg s.c., tested 30 min after dosing, read-out: Screen @ 1 mg/kg sc (% MPE)
Procedure: Compounds were tested for efficacy in mouse models of chemotherapy induced peripheral neuropathy. […] For these studies […]/6 mice are habituated to the test environment and baseline measurements of pain sensitivity are assessed. To determine mechanical responses, the threshold for responses to punctate mechanical stimuli (mechanical hyperalgesia) was tested according to the frequency method. In brief, the plantar surface of the animal hindpaw was stimulated with a single von Frey monofilament (0.4 g) for approximately 1-2 seconds. If there was a withdrawal response, it was recorded as a positive response. A response was defined as a lifting or shaking of the paw upon stimulation. This was repeated ten times for each mouse. The final measurement for each mouse is the % non-response to stimulation for the ten trials. The % non-response to stimulation is converted to a % MPE. For paclitaxel induced peripheral neuropathy, a series of injections of PAC (6 mg/kg, i.p.) on days 1, 3, 5 and 7 is used to induce peripheral neuropathy. After approximately 14 days from the initiation of PAC injections, animals are re-assessed for mechanical sensitivity. […] On test day animals are dosed with compounds either subcutaneously or orally and tested for mechanical response by the frequency method either 30 min (s.c.) or 60 min (p.o.) after drug administration. Data is presented as a % MPE. For oxaliplatin induced peripheral neuropathy, a series of injections of OXA (4 mg/kg, i.p.) on days 1-5 is used to induce peripheral neuropathy. After approximately 14 days from the initiation of PAC injections, animals are re-assessed for mechanical sensitivity. […] On test day animals are dosed with compounds subcutaneously and tested for mechanical response by the frequency method 30 min after drug administration. Data is presented as a % MPE. One or more of the compounds show reversal of chemotherapeutic induced peripheral neuropathy.

[2] = molecular target: T1, human sphingosine-1-phosphate receptor 1 (S1P1) (Homo sapiens (Human), UniProt P21453); assay: Inhibition of cAMP production (HTRF cAMP HiRange), S1P1 CHO-K1 cells; type: cell-based; details: for hS1P1 cAMP pEC50: inhibition of cAMP production, S1P1 CHO-K1 cells; for Emax: CHO-K1, efficacy (SPAN) normalized to fingolimod, read-out: hS1P1 cAMP SPAN
How it was run: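 CHO-K1 cells stably co-expressing human S1P1 (C-terminal Prolink tag) and EA-β-arrestin2 were grown in AssayComplete Media 6 at 37° C. and 5% CO2, plated, and incubated overnight. Agonist-driven inhibition of intracellular cAMP was read by TR-FRET with the HTRF cAMP HiRange kit on a PheraStar reader. Potency is pEC50, and efficacy (SPAN) is normalized to fingolimod.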
Target sequence in this assay (P21453 whole entry, looked up): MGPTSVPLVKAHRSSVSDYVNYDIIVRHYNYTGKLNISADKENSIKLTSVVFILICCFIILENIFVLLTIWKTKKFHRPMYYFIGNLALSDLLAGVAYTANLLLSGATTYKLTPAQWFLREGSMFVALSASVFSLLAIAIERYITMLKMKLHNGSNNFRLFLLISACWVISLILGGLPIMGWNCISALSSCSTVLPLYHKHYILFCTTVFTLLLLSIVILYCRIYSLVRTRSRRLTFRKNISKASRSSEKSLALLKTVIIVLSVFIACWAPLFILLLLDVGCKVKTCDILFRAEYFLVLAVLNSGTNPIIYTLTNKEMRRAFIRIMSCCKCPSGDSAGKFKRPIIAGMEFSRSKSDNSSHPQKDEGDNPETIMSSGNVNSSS

[3] = molecular target: T1, human sphingosine-1-phosphate receptor 1 (S1P1); assay: β-Arrestin2 recruitment assay (PathHunter), S1P1 CHO-K1 cells; type: cell-based; details: for hS1P1 B-arrestin2 pEC50: β-arrestin2 recruitment, S1P1 CHO-K1 cells; for Emax: CHO-K1, efficacy (SPAN) normalized to fingolimod, read-out: hS1P1 B-arrestin2 SPAN
How it was run: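 Enzyme-fragment complementation read-out: agonist-driven β-arrestin2 binding to ProLink-tagged human S1P1 in stable CHO-K1 cells restores β-galactosidase, measured 1 h at room temperature after a 60 min 37° C. compound incubation. Potency as pEC50, efficacy relative to fingolimod (SPAN).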
Target sequence in this assay (P21453 whole entry, looked up): as above
Target sequence in this assay (P32121 whole entry partner, looked up): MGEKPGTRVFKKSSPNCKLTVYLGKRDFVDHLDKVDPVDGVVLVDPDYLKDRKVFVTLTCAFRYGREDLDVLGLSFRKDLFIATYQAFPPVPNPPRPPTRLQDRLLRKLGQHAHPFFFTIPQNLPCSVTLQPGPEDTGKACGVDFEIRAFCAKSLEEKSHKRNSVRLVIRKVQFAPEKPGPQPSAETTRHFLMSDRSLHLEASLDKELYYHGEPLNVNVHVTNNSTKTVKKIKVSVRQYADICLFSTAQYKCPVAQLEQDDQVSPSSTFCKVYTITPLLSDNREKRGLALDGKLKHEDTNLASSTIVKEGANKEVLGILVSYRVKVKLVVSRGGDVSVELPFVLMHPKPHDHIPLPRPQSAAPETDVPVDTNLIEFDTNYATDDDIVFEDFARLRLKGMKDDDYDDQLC

SMILES	inhibition in vivo at 3 mg/kg [1]	hS1P1 cAMP pEC50 [2]	hS1P1 B-arrestin2 pEC50 [3]	Emax [2]	Emax [3]	inhibition in vivo at 1 mg/kg [1]
CCC1(CC)CC(=O)c2cc(-c3nc(-c4cccnc4C)no3)ccc2O1 [Compound 564, 2,2-diethyl-6-(3-(2-methylpyridin-3-yl)-1,2,4-oxadiazol-5-yl)chroman-4-one]	> 50%	>6.5	>5			
COc1cnccc1-c1nc(-c2ccc3c(c2)nnn3C(C)C)no1 [Compound 606, 3-(1-isopropyl-1H-benzo[d][1,2,3]triazol-5-yl)-5-(3-methoxypyridin-4-yl)-1,2,4-oxadiazole]	> 50%	>6.5	>5	> 75%	> 75%	
CC(C)Nc1ccc(-c2nnc(-c3ccc4oc(=O)[nH]c4c3)o2)cc1C#N [Compound 637, 5-[5-(2-oxo-2,3-dihydro-1,3-benzoxazol-5-yl)-1,3,4-oxadiazol-2-yl]-2-[(propan-2-yl)amino]benzonitrile]	> 50%	>6.5	>5			
CC(C)n1nnc2cc(-c3noc(-c4cccc5c4CCC5=O)n3)ccc21 [Compound 608, 4-{3-[1-(propan-2-yl)-1H-1,2,3-benzotriazol-5-yl]-1,2,4-oxadiazol-5-yl}-2,3-dihydro-1H-inden-1-one]	< 50%	>6.5	>5			
CCC1(CC)CC(=O)c2cc(-c3nc(-c4ccc5c(c4)nnn5C(C)C)no3)ccc2O1 [Compound 305, 2,2-diethyl-6-(3-(1-isopropyl-1H-benzo[d][1,2,3]triazol-5-yl)-1,2,4-oxadiazol-5-yl)chroman-4-one]		<6.5	<5			> 50%
COc1ncccc1-c1nc(-c2ccc3c(c2)nnn3C(C)C)no1 [Compound 607, 3-(1-isopropyl-1H-benzo[d][1,2,3]triazol-5-yl)-5-(2-methoxypyridin-3-yl)-1,2,4-oxadiazole]	> 50%	>6.5	>5	> 75%	> 75%	
CCC1(CC)CC(=O)c2cc(-c3nc(-c4ccc(S(N)(=O)=O)cc4)no3)ccc2O1 [Compound 106, 4-(5-(2,2-diethyl-4-oxochroman-6-yl)-1,2,4-oxadiazol-3-yl)benzenesulfonamide]		>6.5	>5	> 75%	> 75%	< 50%
N#Cc1cc(-c2nnc(-c3ccc4[nH]cnc4c3)o2)ccc1NCC(F)F [Compound 359, 5-[5-(1H-1,3-benzodiazol-5-yl)-1,3,4-oxadiazol-2-yl]-2-[(2,2-difluoroethyl)amino]benzonitrile]	> 50%	>6.5	>5	> 75%	> 75%	
CCC1(CC)CC(=O)c2cc(-c3nc(-c4ccnc(N)c4)no3)ccc2O1 [Compound 513, 6-(3-(2-aminopyridin-4-yl)-1,2,4-oxadiazol-5-yl)-2,2-diethylchroman-4-one]	< 50%	>6.5	>5			
CCC1(CC)CC(=O)c2cc(-c3nc(-c4cnccc4C(F)(F)F)no3)ccc2O1 [Compound 558, 2,2-diethyl-6-(3-(4-(trifluoromethyl)pyridin-3-yl)-1,2,4-oxadiazol-5-yl)chroman-4-one]	> 50%	>6.5	>5			
N#Cc1cc(-c2nnc(-c3cccc4[nH]cnc34)o2)ccc1NCC(F)F [Compound 586, 5-[5-(1H-1,3-benzodiazol-4-yl)-1,3,4-oxadiazol-2-yl]-2-[(2,2-difluoroethyl)amino]benzonitrile]	< 50%	>6.5	>5			
Cn1cnc2ccc(-c3nnc(-c4ccc(NCC(F)F)c(C#N)c4)o3)cc21 [Compound 580, 2-[(2,2-difluoroethyl)amino]-5-[5-(1-methyl-1H-1,3-benzodiazol-6-yl)-1,3,4-oxadiazol-2-yl]benzonitrile]	> 50%	>6.5	>5			
CC(C)Nc1ccc(-c2nc(-c3ccc4c(c3)NC(=O)CC4)no2)cc1C#N [Compound 435, 2-(isopropylamino)-5-(3-(2-oxo-1,2,3,4-tetrahydroquinolin-7-yl)-1,2,4-oxadiazol-5-yl)benzonitrile]	> 50%	>6.5	>5			
CCC1(CC)CC(=O)c2cc(-c3nc(-c4cncc(N)c4)no3)ccc2O1 [Compound 502, 6-(3-(5-aminopyridin-3-yl)-1,2,4-oxadiazol-5-yl)-2,2-diethylchroman-4-one]	> 50%	>6.5	>5			
CC(C)n1nnc2cc(-c3noc(-c4ccccc4C(F)(F)F)n3)ccc21 [Compound 33, 3-(1-isopropylbenzotriazol-5-yl)-5-[2-(trifluoromethyl)phenyl]-1,2,4-oxadiazole]		>6.5	>5			< 50%
CC(C)n1nnc2cc(-c3noc(-c4ccccc4N(C)C)n3)ccc21 [Compound 615, N,N-dimethyl-2-{3-[1-(propan-2-yl)-1H-1,2,3-benzotriazol-5-yl]-1,2,4-oxadiazol-5-yl}aniline]	> 50%	>6.5	>5			
CC(C)Nc1ccc(-c2nc(-c3ccc4c(c3)CCNC4=O)no2)cc1C#N [Compound 442, 2-(isopropylamino)-5-(3-(1-oxo-1,2,3,4-tetrahydroisoquinolin-6-yl)-1,2,4-oxadiazol-5-yl)benzonitrile]	> 50%	>6.5	>5			
N#Cc1cc(-c2nc(-c3ccc4c(c3)NC(=O)CC4)no2)ccc1NCC1CC1 [Compound 471, 2-((cyclopropylmethyl)amino)-5-(3-(2-oxo-1,2,3,4-tetrahydroquinolin-7-yl)-1,2,4-oxadiazol-5-yl)benzonitrile]	< 50%	>6.5	>5			
CCC1(CC)CC(=O)c2cc(-c3nc(-c4cncc(C)c4)no3)ccc2O1 [Compound 563, 2,2-diethyl-6-(3-(5-methylpyridin-3-yl)-1,2,4-oxadiazol-5-yl)chroman-4-one]	< 50%	>6.5	>5			
CCC1(CC)CC(=O)c2cc(-c3nc(-c4cccnc4F)no3)ccc2O1 [Compound 547, 2,2-diethyl-6-(3-(2-fluoropyridin-3-yl)-1,2,4-oxadiazol-5-yl)chroman-4-one]	> 50%	>6.5	>5			
CC(C)n1nnc2cc(-c3noc(-c4cccc5c4CCC5O)n3)ccc21 (stereo not shown) [Compound 636, 4-{3-[1-(propan-2-yl)-1H-1,2,3-benzotriazol-5-yl]-1,2,4-oxadiazol-5-yl}-2,3-dihydro-1H-inden-1-ol]	< 50%	>6.5	>5			
Cc1cn(C)nc1-c1noc(-c2ccc3c(c2)nnn3C(C)C)n1 [Compound 519, 5-[3-(1,4-dimethyl-1H-pyrazol-3-yl)-1,2,4-oxadiazol-5-yl]-1-(propan-2-yl)-1H-1,2,3-benzotriazole]	< 50%	>6.5	>5	> 75%	> 75%	
CC(C)Nc1ccc(-c2nc(-c3ccc4c(c3)C(=O)NCC4)no2)cc1C#N [Compound 514, 2-(isopropylamino)-5-(3-(1-oxo-1,2,3,4-tetrahydroisoquinolin-7-yl)-1,2,4-oxadiazol-5-yl)benzonitrile]	> 50%	>6.5	>5			
